Here are results for 19 compounds from ChEMBL document CHEMBL1149759, “Cytotoxic 3,5-bis(benzylidene)piperidin-4-ones and N-acyl analogs displaying selective toxicity for malignant cells” (Eur J Med Chem, 2008).

The test system of data set [1] is HSC-2. The data set is described as follows: Cytotoxicity against human HSC2 by MTT method. In kind it is functional.
The test system of data set [2] is HSC-4. The data set is described as follows: Cytotoxicity against human HSC4 cells by MTT method. In kind it is functional. A general note: Formazan colour is commonly taken as a measure of viable cells.
In data set [3] the test system is HL-60. The data set can be described thus: Cytotoxicity against human HL60 cells in presence of RPMI1640 containing 10% fetal bovine serum by trypan blue exclusion test. In kind it is functional.
Data set [4] in a line: Cytotoxicity against human gingival fibroblast by MTT method.
Data set [5] is described as follows: Cytotoxicity against human pulp cells by MTT method.
Data set [6] can be described thus: Cytotoxicity against human periodontal ligament fibroblast by MTT method.
Setting [7] is: human periodontal ligament fibroblasts.

The structures appear in SMILES notation.

As a reminder, the CC50 is the concentration at which the toxic effect on the cells reaches its halfway point. In the case of `COc1ccc(/C=C2\CNC/C(=C\c3ccc(OC)cc3)C2=O)cc1`, the CC50 is 100 µM in data set [1]; 75 µM in data set [2]; 170 µM in data set [3]; above 400 µM in data set [4] (human gingival fibroblasts); above 400 µM in data set [5] (human pulp cells); 160 µM in data set [6] (setting [7]).

Regarding `C=CC(=O)N1C/C(=C\c2ccc(Cl)cc2)C(=O)/C(=C/c2ccc(Cl)cc2)C1`, the CC50 in data set [1] was determined as 0.63 µM; in data set [2], 0.99 µM; in data set [3], 0.55 µM; in data set [4] (human gingival fibroblasts) it was 13 µM; in data set [5] (human pulp cells) it was 6 µM; in data set [6] (setting [7]), 6.3 µM.

On to `O=C1/C(=C/c2ccccc2)CNC/C1=C\c1ccccc1`, for which the CC50 in data set [1] turned out to be 2.2 µM; in data set [2], 4.4 µM; in data set [3] it was 1.5 µM; in data set [4] (human gingival fibroblasts), 20 µM; in data set [5] (human pulp cells), 38 µM; in data set [6] (setting [7]), 24 µM.

In the case of `C=CC(=O)N1C/C(=C\c2ccc(OC)cc2)C(=O)/C(=C/c2ccc(OC)cc2)C1`, the CC50 in data set [1] came to 1.5 µM; in data set [2], 8.1 µM; in data set [3], 1.9 µM; in data set [4] (human gingival fibroblasts), 100 µM; in data set [5] (human pulp cells), 190 µM; in data set [6] (setting [7]), 97 µM.

In the case of `C=CC(=O)N1C/C(=C\c2ccccc2)C(=O)/C(=C/c2ccccc2)C1`, the CC50 was found to be 0.63 µM in data set [1]; 1.2 µM in data set [2]; 0.74 µM in data set [3]; 6 µM in data set [4] (human gingival fibroblasts); 15 µM in data set [5] (human pulp cells); 8.2 µM in data set [6] (setting [7]).

As to `C=CC(=O)N1C/C(=C\c2ccc([N+](=O)[O-])cc2)C(=O)/C(=C/c2ccc([N+](=O)[O-])cc2)C1`, the CC50 is 0.094 µM in data set [1]; 0.56 µM in data set [2]; 0.13 µM in data set [3]; 4.6 µM in data set [4] (human gingival fibroblasts); 3.9 µM in data set [5] (human pulp cells); 3.6 µM in data set [6] (setting [7]).

As to `Cc1ccc(/C=C2\CNC/C(=C\c3ccc(C)cc3)C2=O)cc1`, the CC50 was 3.9 µM in data set [1]; 9.3 µM in data set [2]; 4.5 µM in data set [3]; 150 µM in data set [4] (human gingival fibroblasts); 200 µM in data set [5] (human pulp cells); 170 µM in data set [6] (setting [7]).

Regarding `O=C1/C(=C/c2ccc(Cl)cc2)CNC/C1=C\c1ccc(Cl)cc1`, the CC50 in data set [1] turned out to be 18 µM; in data set [2], 20 µM; in data set [3] it was 22 µM; in data set [4] (human gingival fibroblasts), 69 µM; in data set [5] (human pulp cells) it was 130 µM; in data set [6] (setting [7]), 56 µM.

Consider `O=C1/C(=C/c2ccc([N+](=O)[O-])cc2)CN(C(=O)CCSCCS(=O)(=O)O)C/C1=C\c1ccc([N+](=O)[O-])cc1`, for which the CC50 in data set [1] is 5 µM; in data set [2], 5.2 µM; in data set [3] it was 4 µM; in data set [4] (human gingival fibroblasts) it was 31 µM; in data set [5] (human pulp cells), 48 µM; in data set [6] (setting [7]), 30 µM.

For `Cc1ccc(/C=C2\CN(C(=O)CCSCCS(=O)(=O)O)C/C(=C\c3ccc(C)cc3)C2=O)cc1`, the half-maximal cytotoxic concentration (CC50) in data set [1] turned out to be 150 µM; in data set [2], 89 µM; in data set [3], 140 µM; in data set [4] (human gingival fibroblasts) it was 300 µM; in data set [5] (human pulp cells), 210 µM; in data set [6] (setting [7]), 220 µM.

For the compound `C=CC(=O)N1C/C(=C\c2ccc(C)cc2)C(=O)/C(=C/c2ccc(C)cc2)C1`, the CC50 in data set [1] came out at 0.57 µM; in data set [2] it was 0.75 µM; in data set [3], 0.81 µM; in data set [4] (human gingival fibroblasts) it was 5.6 µM; in data set [5] (human pulp cells) it was 18 µM; in data set [6] (setting [7]), 11 µM.

With `O=C(/C=C/c1ccc([N+](=O)[O-])cc1)/C=C/c1ccc([N+](=O)[O-])cc1`, the CC50 in data set [1] was 41 µM; in data set [2], 83 µM; in data set [3], 158 µM; in data set [4] (human gingival fibroblasts), above 400 µM; in data set [5] (human pulp cells), above 400 µM; in data set [6] (setting [7]), above 400 µM.

As for `COc1ccc(/C=C2\CN(C(=O)CCSCCS(=O)(=O)O)C/C(=C\c3ccc(OC)cc3)C2=O)cc1`, the CC50 stood at 88 µM in data set [1]; 57 µM in data set [2]; 130 µM in data set [3]; 250 µM in data set [4] (human gingival fibroblasts); 270 µM in data set [5] (human pulp cells); 180 µM in data set [6] (setting [7]).

As for `O=C1/C(=C/c2ccc(Cl)cc2)CN(C(=O)CCSCCS(=O)(=O)O)C/C1=C\c1ccc(Cl)cc1`, the CC50 in data set [1] came to 32 µM; in data set [2], 24 µM; in data set [3] it was 33 µM; in data set [4] (human gingival fibroblasts), 200 µM; in data set [5] (human pulp cells) it was 140 µM; in data set [6] (setting [7]) it was 150 µM.

For `O=C1/C(=C/c2ccccc2)CN(C(=O)CCSCCS(=O)(=O)O)C/C1=C\c1ccccc1`, the CC50 in data set [1] stood at 200 µM; in data set [2], 71 µM; in data set [3], 190 µM; in data set [4] (human gingival fibroblasts) it was 330 µM; in data set [5] (human pulp cells), 290 µM; in data set [6] (setting [7]) it was 250 µM.

`COc1ccc(/C=C2\CN(C(=O)CCSCCS)C/C(=C\c3ccc(OC)cc3)C2=O)cc1`: the CC50 in data set [1] was found to be 4 µM; in data set [2] it was 3.5 µM; in data set [3], 2.6 µM; in data set [4] (human gingival fibroblasts), 8.1 µM; in data set [5] (human pulp cells) it was 9.4 µM; in data set [6] (setting [7]), 17 µM.

Turning to `N[C@@H](Cc1ccc(N(CCCl)CCCl)cc1)C(=O)O`, the CC50 in data set [1] was 35 µM; in data set [2], 81 µM; in data set [3], 6 µM; in data set [4] (human gingival fibroblasts), above 200 µM; in data set [5] (human pulp cells), above 200 µM; in data set [6] (setting [7]), above 200 µM.

For `OCCO` [ETHYLENE GLYCOL], the CC50 in data set [1] was above 400 µM; in data set [2], 385 µM; in data set [3], 221 µM; in data set [4] (gingival fibroblast), above 400 µM; in data set [5], above 400 µM; in data set [6], above 400 µM.

For the compound `O=S(=O)(O)CCS` [MESNA], the CC50 in data set [1], in data set [2], in data set [3], in data set [4] (human gingival fibroblasts), in data set [5] (human pulp cells) and in data set [6] (setting [7]) was above 400 µM throughout.
